Paper PMC5421785, “Citrullination only infrequently impacts peptide binding to HLA class II MHC” (PLoS ONE, 2017)
pIC50: −log10 of the molar value. Where two headings read alike, the source gives them in different places. Square brackets hold non-standard residues; d marks the D form. Peptide text beside a SMILES is read from it. Cit = NC(=O)NCCC[C@H](N)C(=O)O

How the values were obtained:
Test in all cases: HLA class II peptide binding, inhibition of radiolabeled peptide binding to purified MHC; as to IC50 DRB1*01:01: competition with radiolabeled peptide (0.1–1 nM); as to IC50 DRB1*04:01: competition with radiolabeled peptide (0.1–1 nM)
[1] = target: T1, HLA-DRB1*01:01 (Homo sapiens, UniProt P01903+P01911, A100R/D57E/F55L/F60I/F76Y/I96L/L162R/M171V/P40L/Q125E/R42F/V115G/Y59C); settings: read-out: IC50 DRB1*01:01; also: competition with radiolabeled peptide (0.1–1 nM)
T1 construct: EBV transformed homozygous cell lines were used as sources of MHC molecules; endogenous in cells; host or cells: EBV transformed homozygous cell lines

[2] = target: T2, HLA-DRB1*04:01 (Homo sapiens, UniProt P01903+P01911, A100K/A169T/F76Y/I96L/K127E/L162R/M171V/N62H/P40V/Q125Y/R42H/S133A/S149N/S66Y/V115G/V209L/W38E); settings: read-out: IC50 DRB1*04:01; also: competition with radiolabeled peptide (0.1–1 nM)
T2 construct: EBV transformed homozygous cell lines were used as sources of MHC molecules; endogenous in cells; host or cells: EBV transformed homozygous cell lines

[3] = target: DRB1*04:04 (Homo sapiens, UniProt P01903+P01911, A100R/A169T/F76Y/I96L/K127E/L162R/M171V/N62H/P40V/Q125Y/R42H/S133A/S149N/S66Y/V209L/W38E); settings: SE+, competition with radiolabeled peptide, two-day incubation, three or more independent experiments
[4] = target: DRB1*04:05 (Homo sapiens, UniProt P01903+P01911, A100R/A169T/D86S/F76Y/I96L/K127E/L162R/M171V/N62H/P40V/Q125Y/R42H/S133A/S149N/S66Y/V115G/V209L/W38E); settings: SE+, competition with radiolabeled peptide, two-day incubation, three or more independent experiments
[5] = target: DRB1*10:01 (Homo sapiens, UniProt P01903+P01911, A100R/A169T/D57E/F55L/F60V/F69Y/F76Y/I96L/L162R/M171V/P40V/Q260P/Q39E/Q99R/R195Q/R42F/S149N/S66Y/T210M/V115G/V67A/W38E/Y59R/Y61H); settings: SE+, competition with radiolabeled peptide, two-day incubation, three or more independent experiments
[6] = target: DRB1*04:02 (Homo sapiens, UniProt P01903+P01911, A100E/A169T/F76Y/K127E/L162R/M171V/N62H/P40V/Q125Y/Q99D/R42H/S133A/S149N/S66Y/V209L/W38E); settings: SE-, competition with radiolabeled peptide, two-day incubation, three or more independent experiments
[7] = target: DRB1*11:01 (Homo sapiens, UniProt P01903+P01911, A100R/A169T/A87E/I96F/K41T/L162R/M171V/P40S/Q125H/Q178H/Q39Y/Q99D/R42S/S66Y/T262R/V115G/W38E); settings: SE-, competition with radiolabeled peptide, two-day incubation, three or more independent experiments
[8] = target: DRB1*12:01 (Homo sapiens, UniProt P01903+P01911, A100R/A169T/D57E/D86V/F55L/H45Y/K41T/L162R/M171V/P40S/Q125H/Q178H/Q39Y/Q99D/R42G/S66L/T262R/V114A/V67L/W38E/Y59H/Y61H/Y89S); settings: SE-, competition with radiolabeled peptide, two-day incubation, three or more independent experiments
[9] = target: DRB1*13:02 (Homo sapiens, UniProt P01903+P01911, A100E/A169T/K41T/L162R/M171V/P40S/Q125H/Q178H/Q39Y/Q99D/R42S/S66N/T262R/V115G/W38E/Y61H); settings: SE-, competition with radiolabeled peptide, two-day incubation, three or more independent experiments
[10] = target: T3, DRB1*15:01 (Homo sapiens, UniProt P01903+P01911); settings: SE-, competition with radiolabeled peptide, two-day incubation, three or more independent experiments
T3 construct: EBV transformed homozygous cell lines were used as sources of MHC molecules; endogenous in cells; host or cells: EBV transformed homozygous cell lines

[11] = target: DRB1*16:02 (Homo sapiens, UniProt P01903+P01911, A100R/F76Y/I96L/Q99D/V115G); settings: SE-, competition with radiolabeled peptide, two-day incubation, three or more independent experiments
[12] = target: DRB1*03:01 (Homo sapiens, UniProt P01903+P01911, A100K/A102G/A103R/A169T/F55Y/I96L/K41T/L162R/M171V/P40S/Q125H/Q178H/Q39Y/R42S/S66N/T106N/T262R/W38E/Y61H); settings: Other DR, competition with radiolabeled peptide, two-day incubation, three or more independent experiments
[13] = target: DRB1*07:01 (Homo sapiens, UniProt P01903+P01911, A100R/A102G/A103Q/D57E/D86V/E43K/F76Y/K127E/L162R/M171V/P40G/Q125H/Q99D/R33Q/R42Y/R54Q/S133A/S66F/T210M/V115G/Y107V/Y59L/Y89S); settings: Other DR, competition with radiolabeled peptide, two-day incubation, three or more independent experiments
[14] = target: DRB1*08:02 (Homo sapiens, UniProt P01903+P01911, A100R/A103L/A169T/F76Y/H45Y/I96F/K41T/L162R/M171V/P40S/Q125H/Q178H/Q39Y/Q99D/R218S/R42G/S66Y/V115G/W38E); settings: Other DR, competition with radiolabeled peptide, two-day incubation, three or more independent experiments
[15] = target: DRB1*09:01 (Homo sapiens, UniProt P01903+P01911, A100R/A103E/D57H/D86V/F55Y/F60I/F76Y/I96F/K127E/L162R/M171V/P40D/Q125H/Q99R/R33Q/R42F/S133A/S66N/T210M/V115G/W38K/Y107V/Y59G/Y89S); settings: Other DR, competition with radiolabeled peptide, two-day incubation, three or more independent experiments
[16] = target: T4, DRB3*01:01 (Homo sapiens, UniProt P01903+P79483); settings: Other DR, competition with radiolabeled peptide, two-day incubation, three or more independent experiments
T4 construct: EBV transformed homozygous cell lines were used as sources of MHC molecules; endogenous in cells; host or cells: EBV transformed homozygous cell lines

[17] = target: DRB3*02:02 (Homo sapiens, UniProt P01903+P79483, A212P/D57E/F66Y/L67A/R103Q/R218S/R40L/S89Y/T80R/V86D/Y55F/Y59H); settings: Other DR, competition with radiolabeled peptide, two-day incubation, three or more independent experiments
[18] = target: T5, DRB4*01:01 (Homo sapiens, UniProt P01903+P13762, G164S); settings: Other DR, competition with radiolabeled peptide, two-day incubation, three or more independent experiments
T5 construct: EBV transformed homozygous cell lines were used as sources of MHC molecules; endogenous in cells; host or cells: EBV transformed homozygous cell lines

[19] = target: T6, DRB5*01:01 (Homo sapiens, UniProt P01903+Q30154); settings: Other DR, competition with radiolabeled peptide, two-day incubation, three or more independent experiments
T6 construct: EBV transformed homozygous cell lines were used as sources of MHC molecules; endogenous in cells; host or cells: EBV transformed homozygous cell lines

[20] = target: T7, DPB1*04:01 (Homo sapiens, UniProt P04440+P20036)
T7 construct: EBV transformed homozygous cell lines were used as sources of MHC molecules; endogenous in cells; host or cells: EBV transformed homozygous cell lines
T7 sequence (P04440 30-258): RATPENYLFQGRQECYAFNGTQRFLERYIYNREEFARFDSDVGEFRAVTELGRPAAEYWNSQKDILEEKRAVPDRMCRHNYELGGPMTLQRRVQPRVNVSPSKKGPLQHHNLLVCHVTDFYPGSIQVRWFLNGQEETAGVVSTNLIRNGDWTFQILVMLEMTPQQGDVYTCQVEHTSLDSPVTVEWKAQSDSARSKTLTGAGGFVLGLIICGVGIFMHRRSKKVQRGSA
T7 sequence (P20036 29-260 partner): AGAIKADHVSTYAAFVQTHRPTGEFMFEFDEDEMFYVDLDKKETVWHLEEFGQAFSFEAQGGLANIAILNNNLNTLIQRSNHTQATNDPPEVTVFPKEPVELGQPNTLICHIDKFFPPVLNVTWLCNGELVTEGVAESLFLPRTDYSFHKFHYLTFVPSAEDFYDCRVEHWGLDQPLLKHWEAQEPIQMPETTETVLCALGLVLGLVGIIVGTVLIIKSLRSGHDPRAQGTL

[21] = target: DQB1*03:01 (Homo sapiens, UniProt P01909+P01920); settings: DQ, competition with radiolabeled peptide, two-day incubation, three or more independent experiments
Sequence of DQB1*03:01 (P01920 33-261, other chains not shown): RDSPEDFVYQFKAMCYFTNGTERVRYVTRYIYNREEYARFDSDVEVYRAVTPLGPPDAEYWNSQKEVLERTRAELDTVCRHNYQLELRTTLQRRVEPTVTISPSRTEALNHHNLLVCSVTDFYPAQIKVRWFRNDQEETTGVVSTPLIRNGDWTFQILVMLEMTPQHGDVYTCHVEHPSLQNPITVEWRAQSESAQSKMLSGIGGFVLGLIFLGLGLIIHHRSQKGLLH

[22] = DP, purified MHC, competition with radiolabeled peptide, two-day incubation, three or more independent experiments

SMILES	pIC50 [1]	pIC50 [2]	pIC50 [3]	pIC50 [4]	pIC50 [5]	pIC50 [6]	pIC50 [7]	pIC50 [8]	pIC50 [9]	pIC50 [10]	pIC50 [11]	pIC50 [12]	pIC50 [13]	pIC50 [14]	pIC50 [15]	pIC50 [16]	pIC50 [17]	pIC50 [18]	pIC50 [19]	pIC50 [20, 22]	other results
CC(C)C[C@H](NC(=O)[C@H](CC(C)C)NC(=O)[C@@H](NC(=O)[C@@H](N)C(C)C)C(C)C)C(=O)N[C@H](C(=O)N[C@@H](C)C(=O)N[C@H](C(=O)N[C@@H](CCC(=O)O)C(=O)NCC(=O)N[C@@H](CCCNC(N)=O)C(=O)N[C@H](C(=O)N[C@@H](CCCNC(=N)N)C(=O)N[C@H](C(=O)N[C@@H](CC(N)=O)C(=O)N[C@@H](CO)C(=O)N[C@@H](C)C(=O)N[C@@H](Cc1ccc(O)cc1)C(=O)N[C@@H](CCC(N)=O)C(=O)N[C@@H](CC(=O)O)C(=O)N[C@@H](CCCCN)C(=O)O)C(C)C)C(C)C)[C@@H](C)O)C(C)C [Aggrecan 84–103 Cit] (H-VVLLVATEG[Cit]VRVNSAYQDK-OH)	5.41	6.08	6.07	7.33	5.62	5.37	4.53	4.96	6.26	5.12	4.64	4.95	5.07	4.77	4.55	4.72	7.29	5.63	6.13	4.79	pIC50 [21]: 6.42
CSCC[C@H](NC(=O)[C@H](Cc1ccc(O)cc1)NC(=O)[C@H](CCC(N)=O)NC(=O)[C@@H](N)CC(C)C)C(=O)N[C@@H](CCCNC(N)=O)C(=O)N[C@@H](C)C(=O)N[C@@H](CC(=O)O)C(=O)N[C@@H](CCC(N)=O)C(=O)N[C@@H](C)C(=O)N[C@@H](C)C(=O)NCC(=O)NCC(=O)N[C@@H](CC(C)C)C(=O)N[C@@H](CCCNC(=N)N)C(=O)O [Collagen II 1236–1249 Cit] (H-LQYM[Cit]ADQAAGGLR-OH)	6.63	7.89	6.67	5.13	6.36	6.68	< 4.52	< 4.52	5.08	4.82	< 4.52	7.14	< 4.52	5.67	6.56	7.20	6.32	8.14	4.99	< 4.52	pIC50 [21]: 5.39
CC[C@H](C)[C@H](NC(=O)[C@H](CCCNC(N)=O)NC(=O)[C@H](CC(N)=O)NC(=O)[C@@H](NC(=O)[C@H](Cc1ccccc1)NC(=O)[C@H](CC(=O)O)NC(=O)[C@H](CCC(N)=O)NC(=O)[C@@H](N)CC(N)=O)[C@@H](C)O)C(=O)N[C@@H](CC(N)=O)C(=O)N[C@@H](CCCCN)C(=O)N[C@@H](CC(C)C)C(=O)N[C@@H](CCCCN)C(=O)N[C@@H](CC(N)=O)C(=O)N[C@@H](CO)C(=O)O [Fibrinogen 78–91 Cit] (H-NQDFTN[Cit]INKLKNS-OH)	4.81	4.89	5.63	4.95	5.07	< 4.52	< 4.52	5.03	< 4.52	< 4.52	4.82	< 4.52	< 4.52	4.45	< 4.52	< 4.52	< 4.52	4.90	8.04	< 4.52	pIC50 [21]: < 4.52
CC(C)C[C@H](NC(=O)[C@H](CCCCN)NC(=O)[C@H](CC(C)C)NC(=O)[C@@H](NC(=O)[C@H](CC(N)=O)NC(=O)[C@H](CCC(N)=O)NC(=O)[C@H](CCCCN)NC(=O)[C@@H](NC(=O)[C@H](Cc1ccc(O)cc1)NC(=O)[C@H](CCCCN)NC(=O)[C@@H]1CCCN1)C(C)C)[C@@H](C)O)C(=O)N[C@@H](C)C(=O)N[C@H](C(=O)O)[C@@H](C)O [HA 307–319, reference compound]																					pIC50 [20]: 4.41
